# Results published in patent US20020025940A1, “Methods and compositions for sensitive and rapid, functional identification of genomic polynucleotides and use for cellular assays in drug discovery” (Aurora Biosciences Corporation, priority 1997, published 2002).
# Read-outs that look alike come from different tables or passages of the source.
# Key:
# [1] = test system: T-cell receptor pathway (clone J32-6D4)
# Source text: Thus, this clone was used to identify chemicals that inhibit this T-cell receptor pathway that is also stimulated by the PKC activator PMA.
# [2] = test system: Jurkat cells; test: Proliferation assay (MTT), Jurkat cells; format: cell-based, human; conditions: concentrations up to 10 microM, five days
# Experimental: (§1) Chemicals A and B were further tested for their anti-proliferative effect on Jurkat cells and mouse L-cells (mouse fibroblast cell line). […] Proliferation assays were performed by seeding about 20,000 cells unactivated by PHA into a 24 well plate. These cells were contacted with chemicals and were then incubated at 37° C. for five days. The cells were contacted with 10 micrograms/ml of MTT (Sigma Chemical Co., MO) for three hours. The cells were then collected, resuspended in isopropanol, and the absorbance was read in a plate reader at a wavelength of 570 nm with a background subtraction at a reading at a wavelength of 690 nm (see, Carmichael et al., Cancer Res. 47:936 (1987)).
# [3] = test system: mouse L-cells (mouse fibroblast cell line); test: Proliferation assay (MTT), mouse L-cells; format: cell-based; conditions: concentrations up to 10 microM, five days
# Experimental: as §1
# [4] = test system: BLEC integrated RBL-1 cell clones; test: FACS of BLEC-1 integrated RBL-1 clones after ionomycin stimulation (CCF2/AM blue/green); format: cell-based, rat
# Experimental: This library of BLEC-1 integrated clones was loaded with the fluorescent substrate of BL (CCF-2-AM) by adding 10 microM CCF-2-AM in HBSS containing […] at pH 7.1 and 1% glucose. After a 1 hour incubation at 22° C. cells were washed with HBSS and viewed upon excitation with 400 nm light using a 435 nm long pass emission filter. Under these assay conditions 10% of the cells were blue fluorescent indicating they were expressing beta-lactamase.
# Fluorescent activated cell sorting of multi-clonal populations of RBL-1 gene integrated clones was used to identify clones with regulated BL gene expression. A BL non-expressing population of cells was isolated by sorting a library of BLEC-1 integrated clones generated by transfection of RBL-1 cells as described in Example 2. 180,000 clones expressing little or no BL were isolated by sorting for clones with a low blue/green ratio (R1 population), as shown in FIG. 4A. This population of clones was grown for seven days and resorted by FACS to test the population's fluorescent properties. […] It is also clear that the total population has shifted towards more green cells compared to the parent population, as shown in FIG. 4A. There are, however, cells with a high blue/green ratio showing up in the green sorted population. These may represent clones in which the BLEC has integrated into a differentially regulated gene such as a gene whose expression changes throughout the cell cycle.
# The population of RBL-1 clones shown in FIG. 4B was stimulated by addition of 1 uM ionomycin for 6 hours and resorted to identify clones which had the BLEC integrated into a gene which is inducible by increasing intracellular calcium. A greater percentage of blue clones were present in all three of the blue sub-population (R4, R2, R5) in the ionomycin stimulated when compared to the unstimulated population.
# [5] = 10 microM chemical, 1 microgram/ml of PHA for 18 hours
compound,measurement,setting,value
C[C@H]1O[C@@H](O[C@H]2[C@@H](O)C[C@H](O[C@H]3[C@@H](O)C[C@H](O[C@H]4CC[C@@]5(C)[C@H](CC[C@@H]6[C@@H]5CC[C@]5(C)[C@@H](C7=CC(=O)OC7)CC[C@]65O)C4)O[C@@H]3C)O[C@@H]2C)C[C@H](O)[C@@H]1O [Digitoxin],% Inhibition of PHA activation of Clone J32-6D4,[1]; [5],77%
C[C@@H]1O[C@@H](O[C@H]2C[C@@H](O)[C@]3(CO)[C@H]4[C@H](O)C[C@]5(C)[C@@H](C6=CC(=O)OC6)CC[C@]5(O)[C@@H]4CC[C@]3(O)C2)[C@H](O)[C@H](O)[C@H]1O [Quabain],% Inhibition of PHA activation of Clone J32-6D4,[1]; [5],50%
O=C(O)/C=C/c1ccc2ccccc2n1 [chemical B],anti-proliferative effect on Jurkats,[2],no anti-proliferative effect
same,IC50,"[1]; Homo sapiens, T-cell, read-out: IC50 of the inhibition of PHA activation of beta-lactamase expression",~0.2 µM
same,anti-proliferative effect on L-cells,[3],no anti-proliferative effect
[O-][n+]1ccccc1SSc1cccc[n+]1[O-] [Dipyrithione],% Inhibition of PHA activation of Clone J32-6D4,[1]; [5],70%
C[C@H]1O[C@@H](O[C@H]2[C@@H](O)C[C@H](O[C@H]3[C@@H](O)C[C@H](O[C@H]4CC[C@@]5(C)[C@H](CC[C@@H]6[C@@H]5C[C@@H](O)[C@]5(C)[C@@H](C7=CC(=O)OC7)CC[C@]65O)C4)O[C@@H]3C)O[C@@H]2C)C[C@H](O)[C@@H]1O [Digoxin],% Inhibition of PHA activation of Clone J32-6D4,[1],86%
CN(C)c1ccc(C(=C2C=CC(=[N+](C)C)C=C2)c2ccc(N(C)C)cc2)cc1 [Gentian Violet],% Inhibition of PHA activation of Clone J32-6D4,[1]; [5],73%
"C[C@H](CCC(=O)O)C[C@H](C)C[C@H](C)C(=O)/C=C(\O)[C@H](C)C[C@H](C)C/C=C/[C@@H](C)[C@@H](O)[C@@H](C)[C@@H](O)C[C@@H]1CC[C@@](C)([C@H]2CC[C@@](C)([C@@H](C)O)O2)O1 [Ionomycin, ionomycin]","Ratio +Ion/−Ion, sort window R4 (blue)",[4]; 1 uM ionomycin vs unstimulated,2.2
same,"Ratio +Ion/−Ion, sort window R5",[4]; 1 uM ionomycin vs unstimulated,1.6
same,"Ratio +Ion/−Ion, sort window R6 (green)",[4]; 1 uM ionomycin vs unstimulated,.9
same,Stimulated % of cells in sort window R4 (blue),"[4]; 1 uM ionomycin, 6 hours, R4 highest blue/green ratio",.24%
same,Stimulated % of cells in sort window R5,"[4]; 1 uM ionomycin, 6 hours, R5 lower blue/green ratio",2.5%
same,Stimulated % of cells in sort window R6 (green),"[4]; 1 uM ionomycin, 6 hours, R6 green",61.64%
CCCCC1C(=O)N(c2ccccc2)N(c2ccc(O)cc2)C1=O (stereo not shown) [Oxyphenbutazone],% Inhibition of PHA activation of Clone J32-6D4,[1]; [5],75%
Nc1nc2nc[nH]c2c(=S)[nH]1 [Thioguanine],% Inhibition of PHA activation of Clone J32-6D4,[1]; [5],50%
